# According to patent US20240368214A1, “POSITIVE NMDA-MODULATING COMPOUNDS AND METHODS OF USE THEREOF” (SAGE THERAPEUTICS, INC., priority 2021, published 2024):
# Like-named read-outs stand apart in the source and are kept apart here.
# Molecular target: T1, recombinant human GluN1/GluN2A receptor (Homo sapiens, UniProt Q05586+Q12879)
# T1 construct: expressed in transfected cells; host or cells: HEK293, tetracycline-inducible expression
# Experiment: Whole-cell patch clamp of mammalian cells (Syncropatch 384i), NMDA modulation
# Type: cell-based
# Details: HEK293 cells, human GluN1/GluN2A, glutamate 1 μM / glycine 100 μM, -80 mV, peak amplitude increase; for EC50: read-out: EC50
# Text: Whole-Cell Patch Clamp of Mammalian Cells (Syncropatch 384i (Nanion Technologies))
# Whole-cell patch clamp electrophysiology was used to investigate the effects of compounds on GluN1/GluN2A N-methyl-D-aspartate (NMDA) glutamate receptors expressed in mammalian cells.
# Human embryonic kidney (HEK293) cells expressing the recombinant human GluN1/GluN2A receptor under the control of a tetracycline-inducible expression system were used. Cells were maintained in Dulbecco's Modified Eagle's Medium (DMEM) with 1% glutamine, 10% Tetracycline System Approved fetal bovine serum (FBS), and NMDA inhibitors. Cells were cultured in a humidified 5% CO2 incubator at 37° C. Cells were induced with 50 ng/ml tetracycline 18-24 hours prior to testing. A cocktail of channel blockers was added to the media to prevent cell death.
# Cells were 60-80% confluent at the time of harvest. Cells were detached from the flask TrypLE Enzyme Express (Thermo Fisher) at 37° C., and then cold extracellular solution was added to the flask, followed by incubation at 4° C. and then trituration of the cells. The cell solution was then placed on a shaker on the Syncropatch platform at 10° C. with a shake speed of a minimum 200 rpm for at least 30 minutes prior to testing.
# Extracellular (EC) solution (in mM) —140 NaCl, 4 KCl, 5 CaCl2, 10 HEPES, 5 Glucose, pH 7.4 with NaOH. All external solutions contained 0.2% DMSO and 0.01% Kolliphor® EL (C5135, Sigma) throughout the experiment.
# Intracellular (IC) solution (in mM) —120 CsF, 10 mM EGTA, 10 NaCl, 10 HEPES, 4 NaATP, 2 MgCl2, pH 7.2 with CsOH.
# First, the DMSO Master Plate was prepared, in which the DMSO stock of each test compound was serially diluted in 100% DMSO to 1000× the final assay concentration. Immediately prior to assay testing, the compounds were diluted 1:100 by transferring solutions from the DMSO Mast Plate to the Intermediate Plate pre-filled with EC solution using a Biomek FX automated liquid handling system. Compounds were then diluted further with extracellular solution into two pre-incubation plates—1) compound from the Intermediate Plate was mixed with EC solution at a 1:5 dilution to create a 2× Compound Pre-Incubation Plate which was diluted a further 1:2 when added to the Syncropatch for the initial compound pre-incubation. And 2) compound from the Intermediate plate was mixed with EC solution at a 1:10 Dilution to create the 1× Compound Pre-Incubation Plate, which was used for subsequent compound pre-incubations. Finally, a Compound+Agonist Plate was prepared by mixing compound from the 2× Compound Pre-Incubation Plate with 2× concentration of co-agonists in a 1:1 ratio.
# Each experiment sequentially included cell catching, sealing, whole-cell formation, liquid application, recording and data acquisition. Whole-cell patch clamp recordings were performed using multi-hole high resistance chips on the SyncroPatch 384i (Nanion Technologies). A steady-state voltage pulse at -80 mV was applied throughout the assay and a 10 second recording window was triggered around 1 second prior to application of co-agonists. Currents were leak corrected and sampled at 5 kHz.
# A fast application was used, in which 5 μl co-agonist was rapidly applied at a speed of 30 μl/s and then rapidly removed from the well. To test for modulator activity, the co-agonists glutamate (1 μM) and glycine (100 μM) were applied three times to show activation reproducibility, followed by 120 seconds pre-incubation of test compound alone. The test compound was then re-applied in the presence of co-agonists two times. This was followed by application of the agonist alone, although test compound may not be fully washed from the well prior to this step. Finally, a saturating concentration of co-agonists (glutamate 100 μM/glycine 100 μM) was applied.
# The voltage protocol generation data collection and analysis were performed on PatchControll384 and DataControll384. […]
# T1 sequence (Q12879 23-1464, other chains not shown): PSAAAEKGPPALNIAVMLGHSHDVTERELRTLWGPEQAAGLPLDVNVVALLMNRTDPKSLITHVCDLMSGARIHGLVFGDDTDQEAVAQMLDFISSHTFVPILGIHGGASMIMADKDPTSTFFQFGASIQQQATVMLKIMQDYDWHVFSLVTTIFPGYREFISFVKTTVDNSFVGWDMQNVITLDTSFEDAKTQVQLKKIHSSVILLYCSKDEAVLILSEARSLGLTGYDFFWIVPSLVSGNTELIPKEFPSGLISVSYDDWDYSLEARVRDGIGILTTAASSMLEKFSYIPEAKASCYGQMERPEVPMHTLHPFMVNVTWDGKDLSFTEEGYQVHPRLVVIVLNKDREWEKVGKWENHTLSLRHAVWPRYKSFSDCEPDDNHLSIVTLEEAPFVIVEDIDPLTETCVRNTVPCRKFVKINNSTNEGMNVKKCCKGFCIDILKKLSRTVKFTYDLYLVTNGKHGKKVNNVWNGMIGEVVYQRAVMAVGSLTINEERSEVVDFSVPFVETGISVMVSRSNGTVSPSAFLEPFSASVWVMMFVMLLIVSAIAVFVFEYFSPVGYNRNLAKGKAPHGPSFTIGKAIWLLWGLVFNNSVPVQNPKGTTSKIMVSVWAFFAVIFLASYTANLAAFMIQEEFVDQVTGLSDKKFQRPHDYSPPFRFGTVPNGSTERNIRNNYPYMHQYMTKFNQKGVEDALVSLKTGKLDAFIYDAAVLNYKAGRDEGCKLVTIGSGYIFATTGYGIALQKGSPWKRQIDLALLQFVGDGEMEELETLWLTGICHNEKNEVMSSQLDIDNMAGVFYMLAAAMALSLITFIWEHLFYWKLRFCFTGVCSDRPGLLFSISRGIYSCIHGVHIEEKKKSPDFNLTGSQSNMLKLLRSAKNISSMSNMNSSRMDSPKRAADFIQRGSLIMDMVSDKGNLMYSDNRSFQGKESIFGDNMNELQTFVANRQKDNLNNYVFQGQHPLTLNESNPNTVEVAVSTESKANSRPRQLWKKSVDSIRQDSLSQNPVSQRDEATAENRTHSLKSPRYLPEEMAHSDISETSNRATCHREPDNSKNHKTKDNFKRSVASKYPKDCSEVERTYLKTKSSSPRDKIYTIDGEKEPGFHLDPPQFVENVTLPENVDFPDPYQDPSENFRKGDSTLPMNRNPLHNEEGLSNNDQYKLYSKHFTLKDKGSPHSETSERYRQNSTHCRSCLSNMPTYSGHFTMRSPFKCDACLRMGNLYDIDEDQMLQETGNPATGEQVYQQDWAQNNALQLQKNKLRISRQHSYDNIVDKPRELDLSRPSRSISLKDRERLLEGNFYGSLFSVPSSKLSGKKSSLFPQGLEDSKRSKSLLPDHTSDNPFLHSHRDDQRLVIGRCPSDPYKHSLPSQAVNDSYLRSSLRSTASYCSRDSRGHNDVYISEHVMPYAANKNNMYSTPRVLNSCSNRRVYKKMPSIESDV
SMILES,EC50 (Table A-2) [nM],Emax (Table D-2) [%],EC50 (Table D-2) [nM],Emax (Table A-2) [%]
"CC[C@]1(O)CC[C@@]2(C)[C@@H](CC[C@@H]3[C@@H]2CC[C@]2(C)[C@@H](C(CC[C@@H](O)C(C)C)C(F)(F)F)CC[C@@H]32)C1 (stereo in doubt) [Compound A-19, (3S,5S,8R,9S,10S,13S,14S,17R)-3-ethyl-10,13-dimethyl-17-((2R,5R)-1,1,1-trifluoro-5-hydroxy-6-methylheptan-2-yl)hexadecahydro-1H-cyclopenta[a]phenanthren-3-ol]",> 1000,,,
"CCC1(O)CCC[C@@]2(C)[C@@H](CC[C@@H]3[C@@H]2CC[C@]2(C)[C@@H]([C@H](C)CC[C@](C)(O)C(F)(F)F)CC[C@@H]32)C1 (stereo in doubt) [Compound D-8, (1R,3aS,3bR,5aS,7S,10aS,10bS,12aR)-7-ethyl-10a,12a-dimethyl-1-((2R,5S)-6,6,6-trifluoro-5-hydroxy-5-methylhexan-2-yl)octadecahydrocyclohepta[a]cyclopenta[f]naphthalen-7-ol]",,100 to 200,> 1000,
"CC[C@H](CCCC(C)(C)O)[C@H]1CC[C@H]2[C@@H]3CC[C@H]4C[C@](O)(CC)CC[C@]4(C)[C@H]3CC[C@]12C [Compound A-1, (3S,5S,8R,9S,10S,13R,14S,17R)-3-ethyl-17-((R)-7-hydroxy-7-methyloctan-3-yl)-10,13-dimethylhexadecahydro-1H-cyclopenta[a]phenanthren-3-ol]",1 to 100,,,100 to 200
"CC[C@H](CC[C@@](C)(O)C(F)(F)F)[C@H]1CC[C@H]2[C@@H]3CC[C@H]4C[C@](O)(CC)CC[C@]4(C)[C@H]3CC[C@]12C [Compound A-2, (3S,5S,8R,9S,10S,13R,14S,17R)-3-ethyl-10,13-dimethyl-17-((3R,6R)-7,7,7-trifluoro-6-hydroxy-6-methylheptan-3-yl)hexadecahydro-1H-cyclopenta[a]phenanthren-3-ol]",500 to 1000,,,100 to 200
"CC[C@H](CC[C@](C)(O)C(F)(F)F)[C@H]1CC[C@H]2[C@@H]3CC[C@H]4C[C@](O)(CC)CC[C@]4(C)[C@H]3CC[C@]12C [Compound A-3, (3S,5S,8R,9S,10S,13R,14S,17R)-3-ethyl-10,13-dimethyl-17-((3R,6S)-7,7,7-trifluoro-6-hydroxy-6-methylheptan-3-yl)hexadecahydro-1H-cyclopenta[a]phenanthren-3-ol]",1 to 100,,,> 200
"CC[C@]1(O)CC[C@@]2(C)[C@@H](CC[C@@H]3[C@@H]2CC[C@]2(C)[C@@H]([C@H](F)CC[C@H](O)C(C)C)CC[C@@H]32)C1 [Compound A-4, (3S,5S,8R,9S,10S,13S,14S,17S)-3-ethyl-17-((1R,4S)-1-fluoro-4-hydroxy-5-methylhexyl)-10,13-dimethylhexadecahydro-1H-cyclopenta[a]phenanthren-3-ol]",1 to 100,,,> 200
"CC[C@]1(O)CC[C@@]2(C)[C@@H](CC[C@@H]3[C@@H]2CC[C@]2(C)[C@@H]([C@H](F)CC[C@@H](O)C(C)C)CC[C@@H]32)C1 [Compound A-5, (3S,5S,8R,9S,10S,13S,14S,17S)-3-ethyl-17-((1R,4R)-1-fluoro-4-hydroxy-5-methylhexyl)-10,13-dimethylhexadecahydro-1H-cyclopenta[a]phenanthren-3-ol]",1 to 100,,,> 200
"CC[C@]1(O)CC[C@@]2(C)[C@@H](CC[C@@H]3[C@@H]2CC[C@]2(C)[C@@H]([C@@H](CC[C@@H](O)C(C)C)OC)CC[C@@H]32)C1 [Compound A-6, (3S,5S,8R,9S,10S,13S,14S,17S)-3-ethyl-17-((1R,4R)-4-hydroxy-1-methoxy-5-methylhexyl)-10,13-dimethylhexadecahydro-1H-cyclopenta[a]phenanthren-3-ol]",100 to 500,,,> 200
"CC[C@]1(O)CC[C@@]2(C)[C@@H](CC[C@@H]3[C@@H]2CC[C@]2(C)[C@@H]([C@@H](CC[C@H](O)C(C)C)OC)CC[C@@H]32)C1 [Compound A-7, (3S,5S,8R,9S,10S,13S,14S,17S)-3-ethyl-17-((1R,4S)-4-hydroxy-1-methoxy-5-methylhexyl)-10,13-dimethylhexadecahydro-1H-cyclopenta[a]phenanthren-3-ol]",100 to 500,,,> 200
"CC[C@]1(O)CC[C@@]2(C)[C@@H](CC[C@@H]3[C@@H]2CC[C@]2(C)[C@@H](C(C#N)CCCC(C)(C)O)CC[C@@H]32)C1 (stereo partly drawn) [Compound A-8, 2-((3S,5S,8R,9S,10S,13S,14S,17R)-3-ethyl-3-hydroxy-10,13-dimethylhexadecahydro-1H-cyclopenta[a]phenanthren-17-yl)-6-hydroxy-6-methylheptanenitrile]",1 to 100,,,100 to 200
"CC[C@]1(O)CC[C@@]2(C)[C@@H](CC[C@@H]3[C@@H]2CC[C@]2(C)[C@@H]([C@H](C#N)CCCC(C)(C)O)CC[C@@H]32)C1 [Compound A-9, (R)-2-((3S,5S,8R,9S,10S,13S,14S,17R)-3-ethyl-3-hydroxy-10,13-dimethylhexadecahydro-1H-cyclopenta[a]phenanthren-17-yl)-6-hydroxy-6-methylheptanenitrile]",1 to 100,,,> 200
CC[C@]1(O)CC[C@@]2(C)[C@@H](CC[C@@H]3[C@@H]2CC[C@]2(C)[C@@H]([C@@H](C#N)CCCC(C)(C)O)CC[C@@H]32)C1 [Compound A-9a],1 to 100,,,< 100
"CC[C@]1(O)CC[C@@]2(C)[C@@H](CC[C@@H]3[C@@H]2CC[C@]2(C)[C@@H]([C@@H](CCCC(C)(C)O)OC)CC[C@@H]32)C1 [Compound A-10, (3S,5S,8R,9S,10S,13S,14S,17S)-3-ethyl-17-((R)-5-hydroxy-1-methoxy-5-methylhexyl)-10,13-dimethylhexadecahydro-1H-cyclopenta[a]phenanthren-3-ol]",100 to 500,,,100 to 200
"CCO[C@H](CC[C@H](O)C(C)C)[C@H]1CC[C@H]2[C@@H]3CC[C@H]4C[C@](O)(CC)CC[C@]4(C)[C@H]3CC[C@]12C [Compound A-11, (3S,5S,8R,9S,10S,13S,14S,17S)-17-((1R,4S)-1-ethoxy-4-hydroxy-5-methylhexyl)-3-ethyl-10,13-dimethylhexadecahydro-1H-cyclopenta[a]phenanthren-3-ol]",> 1000,,,
"CCO[C@H](CC[C@H](O)C(C)C)[C@H]1CC[C@H]2[C@@H]3CC[C@@H]4C[C@](O)(CC)CC[C@]4(C)[C@H]3CC[C@]12C [Compound A-11a, (3S,5R,8R,9S,10S,13S,14S,17S)-17-((1R,4S)-1-ethoxy-4-hydroxy-5-methylhexyl)-3-ethyl-10,13-dimethylhexadecahydro-1H-cyclopenta[a]phenanthren-3-ol]",> 1000,,,< 100
"CC[C@]1(O)CC[C@@]2(C)C(=CC[C@H]3[C@@H]4CC[C@H]([C@@H](CCCC(C)(C)O)OC)[C@@]4(C)CC[C@@H]32)C1 [Compound A-12, (3S,8S,9S,10R,13S,14S,17S)-3-ethyl-17-((R)-5-hydroxy-1-methoxy-5-methylhexyl)-10,13-dimethyl-2,3,4,7,8,9,10,11,12,13,14,15,16,17-tetradecahydro-1H-cyclopenta[a]phenanthren-3-ol]",1 to 100,,,100 to 200
